Experimental data published in patent US20250179167A1, “IL-6 INHIBITOR AS TREATMENT FOR NEPHROPATHY” (YALE UNIVERSITY, priority 2022, published 2025).

Legend:
Format in all cases: in vivo, mouse
[1] = tested on: UUO mice; assay: Wnt inhibitor (LGK974) treatment in UUO mice, renal histology, GR and β-catenin
Procedure: FIG. 24A-24J show inhibition of Wnt signaling abolished the fibrogenic phenotype in mice. (FIG. 24A) Immunohistochemical analysis of -catenin expression in the kidneys of control and diabetic CD-1 and C57BL/6 mice. n=8 biologically independent mice/group combined from two independent experiments were evaluated. Scale bar 50 μm. Representative images are shown; original magnification 200×. (FIG. 24B) Relative mRNA expression determined by qRT-PCR of Axin2, Tcf and fibronectin, in kidneys of control and diabetic CD-1 and C57BL/6 mice. n=6 biologically independent mice/group combined from two experiments were evaluated. Expression was normalized to the internal control 18S. (FIG. 24C) Schematic diagram representing the treatment protocol of Wnt inhibitor (LGK974; 5 mg/kg body weight) in diabetic CD-1 mice and (FIG. 24D) in UUO mice. (FIG. 24E) Masson trichrome and Sirius red staining in the kidneys of diabetic and Wnt inhibitor-treated diabetic CD-1 mice. Representative images (original magnification 300×) are shown. Relative area of fibrosis (%) and relative collagen deposition (%) were measured using the ImageJ program. n=8 biologically independent mice/group combined from two experiments were evaluated. Scale bar 50 μm. (FIG. 24F) Masson trichrome and Sirius red staining in the kidneys of UUO and Wnt inhibitor-treated UUO mice. Representative images (original magnification 300×) are shown. Relative area of fibrosis (%) and relative collagen deposition (%) were measured using the ImageJ program. n=8 biologically independent mice/group combined from two experiments were evaluated. Scale bar 50 μm. (FIGS. 24G-24H) GR protein levels in CD31-positive cells were analyzed by immunofluorescence in the kidneys of Wnti-treated diabetic mice and Wnti-treated UUO mice. FITC-labeled GR, rhodamine-labeled CD31 and DAPI were used. Merged images and representative pictures are shown; original magnification 300×. n=7 biologically independent mice/group combined from four experiments were evaluated. Scale bar 50 μm. (FIGS. 24I-24J) Immunohistochemical analysis of active -catenin expression in Wnti-treated diabetic mice and Wnti-treated UUO mice. n=7 biologically independent mice/group combined from three experiments were evaluated. Scale bar 30 μm. Data are mean SEM. In all panels, one-way Anova with Tukey multiple comparison post hoc test was used to calculate statistical significance. Significance—*p<0.05, **p<0.01, ***p<0.001.
Mouse model of unilateral ureteral obstruction (UUO). UUO surgical procedure was performed as previously described^19. Briefly, mice were anesthetized with isoflurane (3%-5% for induction and 1%-3% for maintenance). Mice were shaved on the left side of the abdomen, a vertical incision was made through the skin with a scalpel, and the skin was retracted. A second incision was made through the peritoneum to expose the kidney. The left ureter was ligated twice […] below the renal pelvis with surgical silk, and the ureter was then severed between the 2 ligatures. Then, the ligated kidney was placed gently back into its correct anatomical position, and sterile saline was added to replenish loss of fluid. The incisions were sutured and mice were individually caged. Buprenorphine was used as an analgesic. The first dose was administered 30 minutes before surgery and then every 12 h for 72 h, at a dose of 0.05 mg/kg subcutaneously. Mice were sacrificed and kidney and blood samples were harvested after perfusion with PBS at 10 days after UUO. Contralateral kidneys were used as a nonfibrotic control for all experiments using this model.
Morphological Evaluation. A point-counting method was utilized to evaluate the relative area of the mesangial matrix. The inventors analyzed PAS-stained glomeruli from each mouse using a digital microscope screen grid containing 540 (27×20) points. Masson's trichrome-stained images were evaluated by ImageJ software, and the fibrotic areas were estimated.
Sirius red staining. […]

[2] = tested on: diabetic CD-1 mice; assay: Plasma cytokine array (Luminex) in diabetic CD-1 mice with and without Wnti treatment
Procedure: Plasma cytokines and chemokines were measured in diabetic CD-1 mice with and without Wnti treatment by using a cytokine array analysis (Luminex). n=5 biologically independent mice/group. Data are mean±SEM. Student's-test (unpaired two-tailed) was used for analysis of statistical significance. Significance—*p<0.05. In one experiment, male mice were randomized to one of 4 groups sixteen weeks after induction of diabetes: (i) untreated, (ii) fenofibrate (100 mg/kg), (iii) simvastatin (40 mg/kg), or (iv) Wnt inhibitor (LGK974; 5 mg/kg). In each case, mice were treated for 4 weeks and compared to untreated diabetic CD-1 mice. In another experiment, male diabetic CD-1 mice were randomized into one of 3 groups: (i) untreated (vehicle), (ii) etomoxir (20 mg/kg) or (iii) C75 (15 mg/kg); in each case mice were treated (IP) three times/week for a total 4 weeks.

[3] = tested on: ECs from CD-1 mice; assay: Fatty acid uptake ([14C]palmitate uptake) in isolated kidney endothelial cells
Procedure: (FIG. 31A) Fatty acid uptake was measured as [^14C]palmitate uptake. […] [^14C]palmitate was used as substrate and CPM counts were normalized to protein. In both cases, endothelial cells isolated from n=5 biologically independent mice/group were analyzed in triplicate. Data are mean±SEM. One-way Anova with Tukey multiple comparison post hoc test was used to calculate statistical significance. Significance—*p<0.05, **p<0.01, ***p<0.001. Fatty acid uptake. Cultured isolated kidney endothelial cells were incubated with medium containing 2 μCi [^14C]-palmitate. [^14C]-palmitate uptake was measured by liquid scintillation counting.

[4] = tested on: isolated kidney ECs of diabetic CD-1 mice; assay: Fatty acid oxidation ([14CO2] release) in isolated kidney endothelial cells
Procedure: (FIG. 31B) Fatty acid oxidation, as represented by [^14CO2]released. [^14C]palmitate was used as substrate and CPM counts were normalized to protein. In both cases, endothelial cells isolated from n=5 biologically independent mice/group were analyzed in triplicate. Data are mean±SEM. One-way Anova with Tukey multiple comparison post hoc test was used to calculate statistical significance. Significance—*p<0.05, **p<0.01, ***p<0.001. Fatty Acid Oxidation. Cultured isolated kidney endothelial cells were incubated with medium containing 0.75 mmol/L palmitate (conjugated to 2% free fatty acid-free BSA/[^14C]palmitate at 2 μCi/mL) for 2 h. One mL of the culture medium was transferred to a sealable tube, the cap of which housed a Whatman filter paper disc. ^14CO2 trapped in the media was then released by acidification of media using 60% perchloric acid. Radioactivity that had become adsorbed onto the filter discs was then quantified by liquid scintillation counting.

[5] = tested on: db/db mice; assay: Wnt inhibitor (LGK-974) treatment in db/db mice; conditions: 5 mg/kg body weight orally by gavage
Procedure: (FIG. 38A) Postprandial blood glucose measurements in the Wnt inhibitor treatments in db/db mice and untreated control db/db mice. LGK-974 (Wnt inhibitor) was treated at 5 mg/kg body weight dose orally by gavage. (FIG. 38B) GTT analysis in the Wnt inhibitor treatments in db/db mice and untreated control db/db mice. N=6 were analyzed in each group. (FIG. 38C) Area under curve (AUC) in the Wnt inhibitor treatments in db/db mice and untreated control db/db mice. N=6 were analyzed in each group. (FIG. 38D) Physiological parameters such as body weight, epididymal fat, kidney weight, liver weight and heart weight in the Wnt inhibitor treatments in db/db mice and untreated control db/db mice. N=6 were analyzed in each group. (FIG. 38E) MTS and Sirius red staining analysis in the Wnt inhibitor treatments in db/db mice and untreated control db/db mice. Representative pictures of 30× are shown. N=6 were analyzed in each group. Relative area fibrosis (RAF) and relative collagen deposition (RCD) were quantified using Image J software program. (FIG. 38F) MTS and Sirius red staining analysis in the heart sections in the Wnt inhibitor treatments in db/db mice and untreated control db/db mice. Representative pictures of 20× are shown. N=6 were analyzed in each group. […] N=6 were analyzed in each group. […]

Structure (SMILES): Cc1cc(-c2ncc(CC(=O)Nc3ccc(-c4cnccn4)cn3)cc2C)ccn1 [LGK974]
- ECM deposition ([1]; 5 mg/kg): greatly diminished
- collagen accumulation ([1]; 5 mg/kg): greatly diminished
- glomerulosclerosis ([1]; 5 mg/kg): greatly diminished
- relative area of fibrosis ([1]; 5 mg/kg): greatly diminished
- level of β-catenin ([1]; kidney immunohistochemistry): suppressed the level of β-catenin
- endothelial GR ([1]; kidney, GR in CD31-positive cells): substantially restored endothelial GR
- plasma CCL4 level [2]: significantly suppressed
- plasma CCL5 level [2]: increasing
- plasma G-CSF level [2]: significantly suppressed
- plasma IL-1β level [2]: significantly suppressed
- plasma IL-6 level [2]: significantly suppressed
- plasma IL-10 level [2]: significantly suppressed
- plasma MCP-1 level [2]: significantly suppressed
- plasma TNFα level [2]: significantly suppressed
- FA uptake ([14C]palmitate uptake) [3]: suppressed FA uptake
- level of FAO ([14CO2] release) [4]: able to restore the level of FAO
- fibrogenic phenotype [5]: abolishes fibrogenic phenotype
